The IC50 is the concentration that inhibits the measured activity by half. What is called AC50 is the concentration at which the activity in the assay is half-maximal. As a reminder, the EC50 is the concentration that produces a half-maximal response.

Active and inactive are the calls of the source. Some results are limits rather than exact numbers.

The record followed here is ChEMBL document CHEMBL1201862, “PubChem BioAssay data set” (2004).

The target of series [1] is T1, Mannose-6-phosphate isomerase (Homo sapiens, UniProt P34949).
T1 sequence (P34949 whole entry): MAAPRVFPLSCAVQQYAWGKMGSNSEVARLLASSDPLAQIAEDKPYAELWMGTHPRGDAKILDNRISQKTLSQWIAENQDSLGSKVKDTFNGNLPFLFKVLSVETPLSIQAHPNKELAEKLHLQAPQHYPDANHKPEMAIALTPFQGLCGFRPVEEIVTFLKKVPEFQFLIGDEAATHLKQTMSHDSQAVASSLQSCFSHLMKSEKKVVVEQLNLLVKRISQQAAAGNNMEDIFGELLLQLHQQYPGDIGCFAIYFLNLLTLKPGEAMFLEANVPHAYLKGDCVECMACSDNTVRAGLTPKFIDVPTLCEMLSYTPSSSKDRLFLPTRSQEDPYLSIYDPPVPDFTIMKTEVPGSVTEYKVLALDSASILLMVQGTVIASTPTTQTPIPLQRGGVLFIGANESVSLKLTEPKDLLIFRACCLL
Nature of the series: human PMI inhibitors, high substrate, primary screen, biochemical, fluorescence intensity, high mannose 6-phosphate (AID 1220).

Series [2] concerns the target Lysine-specific demethylase 4A (Homo sapiens, UniProt O75164). Nature of the series: JMJD2A histone demethylase inhibitors, dose response, selectivity assay for GASC-1 inhibitor project, biochemical, DELFIA europium, cherry-picked samples (AID 488840).
Series [3] addresses Lysine-specific demethylase 4C (Homo sapiens, UniProt Q9H3R0). The experiment in a line: GASC-1 (JMJD2C) histone demethylase inhibitors, dose response, biochemical, DELFIA europium, cherry-picked samples (AID 488835). Format: functional.
The target in another series is Galanin receptor type 2 (Homo sapiens, UniProt O43603). Nature of the series: Dose Response cell-based high-throughput screening assay to identify antagonists of galanin receptor 2 (GALR2). [Related pubchem assays: 828, 866 ]. In kind it is functional.
Chain of Galanin receptor type 2 (O43603 whole entry): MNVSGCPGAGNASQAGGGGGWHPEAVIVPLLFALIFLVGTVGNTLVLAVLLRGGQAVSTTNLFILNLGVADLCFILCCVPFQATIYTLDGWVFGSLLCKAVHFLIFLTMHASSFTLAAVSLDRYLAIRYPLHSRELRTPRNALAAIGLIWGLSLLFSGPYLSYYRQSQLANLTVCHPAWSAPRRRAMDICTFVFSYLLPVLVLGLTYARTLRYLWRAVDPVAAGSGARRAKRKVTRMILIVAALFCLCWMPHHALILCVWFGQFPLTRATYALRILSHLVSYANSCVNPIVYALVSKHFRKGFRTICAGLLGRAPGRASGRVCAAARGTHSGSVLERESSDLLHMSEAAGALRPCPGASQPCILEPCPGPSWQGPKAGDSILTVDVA
Another series relates to Jurkat. Nature of the series: antigen receptor-induced NF-kB inhibitors, dose response, Jurkat, luciferase reporter, luminescence, B- and T-cell (AID 489004).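 Further: NF-kB luciferase reporter Jurkat cells stimulated with PMA plus ionomycin.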 Format: functional, cell-based. The note with it: Homo sapiens. For orientation: Reporter assays use an easily measured gene product as a stand-in for the process of interest.
Series [4] in a line: cytotoxicity in HEK-293T NF-kB-Luc cells, dose response, cytotoxicity control for B/T-cell NF-kB inhibitor project, cell-based, uHTS hits (AID 489019).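 Further: IC50 reflects cytotoxicity as loss of cell viability.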 In kind it is functional.
The target of a further series is Galanin receptor type 3 (Homo sapiens, UniProt O60755). The experiment in a line: Fluorescence-based cell-based primary high throughput dose response assay to identify antagonists of the Galanin Receptor 3 (GalR3). Format: functional.
Chain of Galanin receptor type 3 (O60755 whole entry): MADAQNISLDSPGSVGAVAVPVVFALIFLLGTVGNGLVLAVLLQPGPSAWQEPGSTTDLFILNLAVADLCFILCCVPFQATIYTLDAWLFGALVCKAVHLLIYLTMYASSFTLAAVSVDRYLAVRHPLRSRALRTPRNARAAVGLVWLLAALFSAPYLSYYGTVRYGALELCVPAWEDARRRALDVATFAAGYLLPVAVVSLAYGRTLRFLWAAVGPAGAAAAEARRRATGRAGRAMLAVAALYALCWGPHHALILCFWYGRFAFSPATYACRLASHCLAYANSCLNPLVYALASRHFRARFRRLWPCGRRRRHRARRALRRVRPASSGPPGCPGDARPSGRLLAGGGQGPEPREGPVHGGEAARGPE
A further series is described as follows: cells. Format: functional, cell-based. The settings on record: HEK-CNG.
Series [5] has as its target T2, COUP transcription factor 2 (Homo sapiens, UniProt P24468).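 Further: HEK293 cells transiently cotransfected with COUP-TFII expression vector and reporter; luciferase reporter luminescence driven by COUP-TFII from the pX2-168 reporter plasmid.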
T2 sequence (P24468 whole entry): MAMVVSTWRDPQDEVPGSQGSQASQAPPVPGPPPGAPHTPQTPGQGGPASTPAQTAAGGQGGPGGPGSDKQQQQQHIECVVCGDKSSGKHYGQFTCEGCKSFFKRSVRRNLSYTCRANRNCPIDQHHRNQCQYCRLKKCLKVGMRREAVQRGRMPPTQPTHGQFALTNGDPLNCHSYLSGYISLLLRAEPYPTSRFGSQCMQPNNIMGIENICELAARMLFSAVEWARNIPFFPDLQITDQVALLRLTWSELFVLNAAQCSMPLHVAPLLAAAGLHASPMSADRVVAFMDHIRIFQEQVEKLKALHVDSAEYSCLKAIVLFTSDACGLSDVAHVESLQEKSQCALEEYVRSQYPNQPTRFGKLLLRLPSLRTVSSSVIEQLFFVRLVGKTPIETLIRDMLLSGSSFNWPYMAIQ
Nature of the series: Luminescence-based cell-based high throughput dose response assay to identify inhibitors of COUP-TFII (NR2F2). Format: functional.

Series [6] in a line: Luminescence Cell-Based/Microorganism Confirmation at Dose of Inhibitors of Trypanosoma cruzi Infection. [Related pubchem assays: 1885, 1968 ]. In kind it is functional.
A short description of series [7]: Luminescence Cell-Based Secondary HTS screen to identify cytotoxic compounds of NIH3T3 cells. [Related pubchem assays: 1885, 1968 ]. In kind it is functional.
The nature of series [8]: inhibitors of Trypanosoma cruzi host-cell infection, confirmation, beta-gal luminescence, NIH3T3 host cells (AID 2630). In kind it is functional, cell-based. The settings on record: Mus musculus.
A further series deals with CAAX prenyl protease 2 (Saccharomyces cerevisiae S288c, UniProt Q03530). Format: biochemical.
Chain of CAAX prenyl protease 2 (Q03530 whole entry): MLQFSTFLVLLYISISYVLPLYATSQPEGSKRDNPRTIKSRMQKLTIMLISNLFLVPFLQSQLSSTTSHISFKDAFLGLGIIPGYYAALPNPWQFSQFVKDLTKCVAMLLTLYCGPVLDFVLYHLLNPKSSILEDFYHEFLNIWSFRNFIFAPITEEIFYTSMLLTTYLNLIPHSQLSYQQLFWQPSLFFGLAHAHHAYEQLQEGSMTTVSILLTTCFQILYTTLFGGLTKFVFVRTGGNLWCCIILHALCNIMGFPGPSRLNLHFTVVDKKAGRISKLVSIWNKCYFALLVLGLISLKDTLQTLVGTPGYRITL
Another series concerns the target CAAX prenyl protease 1 (Saccharomyces cerevisiae S288c, UniProt P47154). The experiment in a line: Ste24 protease inhibitors, dose response, biochemical, S. cerevisiae, plate reader, cherry-pick (AID 488815).
In series [9] the target is T3, RNA-binding protein pos-1 (Caenorhabditis elegans, UniProt G5EF15).
T3 sequence (G5EF15 whole entry): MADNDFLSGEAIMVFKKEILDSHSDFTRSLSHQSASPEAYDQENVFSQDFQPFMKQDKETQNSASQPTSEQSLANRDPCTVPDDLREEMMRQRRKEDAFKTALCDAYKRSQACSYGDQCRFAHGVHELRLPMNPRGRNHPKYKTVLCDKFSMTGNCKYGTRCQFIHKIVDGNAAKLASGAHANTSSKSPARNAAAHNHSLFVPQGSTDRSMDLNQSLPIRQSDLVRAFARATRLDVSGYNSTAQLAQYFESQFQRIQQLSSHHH
Nature of the series: inhibitors of POS-1/mex-3 RNA binding, dose response, biochemical, fluorescence polarization (AID 1964).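 Further: purified POS-1 fused to maltose binding protein made in E. coli; potency of compounds blocking POS-1 binding to fluorescent RNA.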 In general terms: Polarisation of emitted light reports the rotation of a fluorescent probe.

Series [10] deals with T4, Zinc finger protein mex-5 (Caenorhabditis elegans, UniProt Q9XUB2).
T4 sequence (Q9XUB2 whole entry): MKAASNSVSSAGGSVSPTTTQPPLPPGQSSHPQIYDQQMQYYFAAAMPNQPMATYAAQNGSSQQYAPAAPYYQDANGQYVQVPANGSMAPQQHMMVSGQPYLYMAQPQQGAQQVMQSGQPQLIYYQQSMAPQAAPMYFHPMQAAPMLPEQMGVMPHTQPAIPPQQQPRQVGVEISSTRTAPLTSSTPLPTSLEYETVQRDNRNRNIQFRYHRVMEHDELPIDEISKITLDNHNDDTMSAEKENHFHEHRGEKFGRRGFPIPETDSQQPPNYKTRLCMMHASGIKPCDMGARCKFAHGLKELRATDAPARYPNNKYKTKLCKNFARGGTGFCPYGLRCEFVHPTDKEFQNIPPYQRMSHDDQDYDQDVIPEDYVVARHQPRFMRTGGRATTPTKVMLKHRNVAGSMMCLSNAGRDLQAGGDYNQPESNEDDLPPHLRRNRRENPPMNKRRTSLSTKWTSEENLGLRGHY
The experiment in a line: MEX-5/TCR-2 RNA interaction inhibitors, dose response, biochemical, C. elegans, fluorescence polarization (AID 1960).

Series [11] is described as follows: Escherichia coli growth inhibition, dose response, counter-screen for MEX-5/POS-1 RNA-binding inhibitor project, luminescence, NEB5alpha (AID 1959). Format: functional. On the technique in general: The purpose of a counterscreen is to sort out artefacts and off-target activity.
The target in the next series is Exodeoxyribonuclease V (Escherichia coli (strain K12), UniProt P04993+P07648+P08394). Nature of the series: E. coli RecBCD inhibitors, dose response, counter-screen for AddAB inhibitor project, absorbance, V66 E. coli, mutant T4 phage (AID 492957). In kind it is functional, cell-based, Escherichia coli str. K-12 substr. MG1655.
Series [12] is described as follows: Counterscreen for AddAB inhibitors: absorbance-based bacterial cell-based high throughput dose response assay for inhibitors of bacterial viability. [Related pubchem assays (depositor defined):AID435030, AID449728, AID449731, AID488942, AID488955, AID488956]. In kind it is functional.
For the next series, the target named is Cytochrome P450 2C9 (Homo sapiens, UniProt P11712).
Chain of Cytochrome P450 2C9 (P11712 whole entry): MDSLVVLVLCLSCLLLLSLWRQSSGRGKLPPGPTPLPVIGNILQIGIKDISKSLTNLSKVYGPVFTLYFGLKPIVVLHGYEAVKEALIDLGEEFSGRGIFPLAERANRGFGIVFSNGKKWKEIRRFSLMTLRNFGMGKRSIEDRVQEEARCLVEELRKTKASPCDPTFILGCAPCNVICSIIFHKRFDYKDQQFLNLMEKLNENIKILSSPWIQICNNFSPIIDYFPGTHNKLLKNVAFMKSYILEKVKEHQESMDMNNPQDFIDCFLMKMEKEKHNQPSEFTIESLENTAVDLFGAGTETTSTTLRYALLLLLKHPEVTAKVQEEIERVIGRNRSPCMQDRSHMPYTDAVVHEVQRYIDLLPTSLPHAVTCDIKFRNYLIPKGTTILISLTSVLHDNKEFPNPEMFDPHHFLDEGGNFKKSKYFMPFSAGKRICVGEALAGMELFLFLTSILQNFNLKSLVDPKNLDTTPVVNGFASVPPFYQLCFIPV
The next series concerns the target Cytochrome P450 2D6 (Homo sapiens, UniProt P10635).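 Further: CYP2D6 member of a cytochrome P450 panel assay.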
Series [13] deals with HEK293. Nature of the series: NOD1 signaling inhibitors, primary screen, cell-based, luminescence, uHTS (AID 1578). In kind it is functional. The settings on record: Homo sapiens.
Series [14] deals with HEK293. Nature of the series: cells. Format: functional, cell-based. The note with it: Homo sapiens.
Series [15] concerns HEK293. Nature of the series: cells. The settings on record: Homo sapiens. Format: functional, cell-based. The source holds these as a separate data set.
The target of series [16] is T5, Nucleotide-binding oligomerization domain-containing protein 2 (Homo sapiens, UniProt Q9HC29). The experiment in a line: NOD2 signaling inhibitors, cell-based, luminescence, uHTS, HEK293 (AID 1566). In kind it is functional.
T5 sequence (Q9HC29 whole entry, the tested form may be a part): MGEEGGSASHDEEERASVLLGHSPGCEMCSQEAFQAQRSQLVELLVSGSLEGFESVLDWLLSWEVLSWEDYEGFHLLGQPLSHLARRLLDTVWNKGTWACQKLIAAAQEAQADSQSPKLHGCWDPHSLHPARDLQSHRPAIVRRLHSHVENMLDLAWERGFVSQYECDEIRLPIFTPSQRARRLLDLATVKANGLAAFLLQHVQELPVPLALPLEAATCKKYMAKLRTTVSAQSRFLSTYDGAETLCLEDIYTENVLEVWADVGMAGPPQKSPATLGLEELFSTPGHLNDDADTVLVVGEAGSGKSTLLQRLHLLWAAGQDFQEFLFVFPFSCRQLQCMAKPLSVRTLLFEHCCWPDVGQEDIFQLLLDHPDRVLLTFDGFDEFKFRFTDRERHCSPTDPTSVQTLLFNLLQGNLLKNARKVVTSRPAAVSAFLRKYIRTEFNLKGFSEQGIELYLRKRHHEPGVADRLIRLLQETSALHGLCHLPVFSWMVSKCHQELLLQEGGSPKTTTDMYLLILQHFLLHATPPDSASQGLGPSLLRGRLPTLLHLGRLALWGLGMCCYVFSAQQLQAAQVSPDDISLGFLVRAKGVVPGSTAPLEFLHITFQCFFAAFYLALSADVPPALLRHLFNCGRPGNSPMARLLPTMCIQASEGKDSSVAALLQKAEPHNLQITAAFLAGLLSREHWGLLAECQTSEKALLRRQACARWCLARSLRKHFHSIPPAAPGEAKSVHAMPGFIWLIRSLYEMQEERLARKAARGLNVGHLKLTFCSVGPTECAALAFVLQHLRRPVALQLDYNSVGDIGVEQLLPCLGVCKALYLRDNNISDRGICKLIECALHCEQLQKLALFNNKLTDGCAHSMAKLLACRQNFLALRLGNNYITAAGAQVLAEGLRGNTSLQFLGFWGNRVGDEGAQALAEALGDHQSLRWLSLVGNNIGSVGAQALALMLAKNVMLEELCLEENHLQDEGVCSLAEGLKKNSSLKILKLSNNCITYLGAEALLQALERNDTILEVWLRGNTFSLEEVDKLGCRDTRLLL
In series [17] the test system is HEK293. The experiment in a line: NOD2 signaling inhibitors in MDP-stimulated cells, cell-based, uHTS, luminescence (AID 2001). Format: functional. The note with it: Homo sapiens.
In series [18] the test system is HEK293. Nature of the series: cells. In kind it is functional, cell-based. The note with it: Homo sapiens. The source holds these as a separate data set.
The next series addresses Tumor necrosis factor (Homo sapiens, UniProt P01375). The experiment in a line: TNFa-triggered NF-kB activation inhibitors, SAR follow-up, cell-based, revised (AID 2337). Format: functional.
For series [19], the target named is T6, Nucleotide-binding oligomerization domain-containing protein 1 (Homo sapiens, UniProt Q9Y239).
T6 sequence (Q9Y239 whole entry): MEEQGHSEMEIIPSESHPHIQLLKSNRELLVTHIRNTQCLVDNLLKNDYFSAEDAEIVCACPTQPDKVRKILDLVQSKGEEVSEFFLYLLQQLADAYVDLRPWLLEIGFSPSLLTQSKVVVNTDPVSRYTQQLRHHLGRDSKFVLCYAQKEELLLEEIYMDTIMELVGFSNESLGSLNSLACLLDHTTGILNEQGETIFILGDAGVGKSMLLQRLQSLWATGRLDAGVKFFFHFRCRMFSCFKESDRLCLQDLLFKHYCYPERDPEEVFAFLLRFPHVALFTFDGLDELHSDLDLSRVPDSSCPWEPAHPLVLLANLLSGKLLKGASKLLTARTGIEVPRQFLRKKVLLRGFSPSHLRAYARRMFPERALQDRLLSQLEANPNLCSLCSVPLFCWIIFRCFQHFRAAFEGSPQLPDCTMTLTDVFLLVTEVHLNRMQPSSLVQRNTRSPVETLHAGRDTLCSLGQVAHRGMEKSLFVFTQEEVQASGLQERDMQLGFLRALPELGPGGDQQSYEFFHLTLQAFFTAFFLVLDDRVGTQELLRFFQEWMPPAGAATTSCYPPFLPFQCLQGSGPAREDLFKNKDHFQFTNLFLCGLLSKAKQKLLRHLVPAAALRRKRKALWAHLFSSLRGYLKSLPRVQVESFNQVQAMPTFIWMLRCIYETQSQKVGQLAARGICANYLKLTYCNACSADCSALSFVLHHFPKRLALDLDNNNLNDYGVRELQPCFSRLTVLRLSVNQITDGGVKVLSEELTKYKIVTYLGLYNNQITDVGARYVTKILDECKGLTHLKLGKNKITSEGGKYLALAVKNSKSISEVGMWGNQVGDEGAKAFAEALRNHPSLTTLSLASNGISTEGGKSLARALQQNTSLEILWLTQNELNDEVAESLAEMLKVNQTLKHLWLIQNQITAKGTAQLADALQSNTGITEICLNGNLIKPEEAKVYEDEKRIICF
Nature of the series: NOD1 signaling inhibitors, SAR follow-up, revised (AID 2333). Format: functional.

In series [20] the target is T5, Nucleotide-binding oligomerization domain-containing protein 2. The experiment in a line: PubChem AID 2334. In kind it is functional.
Series [21] deals with HEK293. The experiment in a line: cells. The note with it: Homo sapiens.

Chain of CAAX prenyl protease 1 (P47154 whole entry): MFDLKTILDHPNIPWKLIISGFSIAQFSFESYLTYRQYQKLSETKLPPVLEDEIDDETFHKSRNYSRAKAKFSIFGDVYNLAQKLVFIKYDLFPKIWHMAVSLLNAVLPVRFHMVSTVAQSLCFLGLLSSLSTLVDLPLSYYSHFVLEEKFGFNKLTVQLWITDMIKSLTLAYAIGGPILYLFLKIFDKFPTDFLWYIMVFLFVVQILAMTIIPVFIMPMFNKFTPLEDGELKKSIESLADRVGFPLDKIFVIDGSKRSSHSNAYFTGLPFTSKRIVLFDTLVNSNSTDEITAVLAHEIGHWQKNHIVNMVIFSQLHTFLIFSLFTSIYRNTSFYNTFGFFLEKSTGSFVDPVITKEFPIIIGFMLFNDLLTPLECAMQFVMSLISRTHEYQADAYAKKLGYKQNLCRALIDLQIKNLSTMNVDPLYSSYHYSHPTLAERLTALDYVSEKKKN
Chain of Tumor necrosis factor (P01375 whole entry, the tested form may be a part): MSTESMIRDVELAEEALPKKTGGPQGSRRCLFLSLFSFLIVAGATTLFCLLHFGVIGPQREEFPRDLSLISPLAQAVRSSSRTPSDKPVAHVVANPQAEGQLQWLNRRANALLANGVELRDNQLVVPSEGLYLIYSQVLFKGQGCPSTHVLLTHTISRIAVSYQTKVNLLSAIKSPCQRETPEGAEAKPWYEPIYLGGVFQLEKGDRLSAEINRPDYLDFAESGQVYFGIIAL
Chain of Cytochrome P450 2D6 (P10635 whole entry): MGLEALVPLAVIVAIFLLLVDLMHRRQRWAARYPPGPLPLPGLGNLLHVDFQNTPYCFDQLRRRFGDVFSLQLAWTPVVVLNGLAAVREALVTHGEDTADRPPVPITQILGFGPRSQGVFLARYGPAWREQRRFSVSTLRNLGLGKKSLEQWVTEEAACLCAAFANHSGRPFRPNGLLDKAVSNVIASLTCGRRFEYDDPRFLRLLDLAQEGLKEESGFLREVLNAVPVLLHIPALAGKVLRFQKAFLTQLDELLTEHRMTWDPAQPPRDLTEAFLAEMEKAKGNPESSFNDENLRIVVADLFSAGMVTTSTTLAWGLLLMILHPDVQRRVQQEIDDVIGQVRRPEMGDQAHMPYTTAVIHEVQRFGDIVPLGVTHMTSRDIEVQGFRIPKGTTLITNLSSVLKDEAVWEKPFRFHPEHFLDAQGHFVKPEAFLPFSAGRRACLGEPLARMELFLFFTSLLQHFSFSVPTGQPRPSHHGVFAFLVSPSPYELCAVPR
Chain of Lysine-specific demethylase 4A (O75164 whole entry): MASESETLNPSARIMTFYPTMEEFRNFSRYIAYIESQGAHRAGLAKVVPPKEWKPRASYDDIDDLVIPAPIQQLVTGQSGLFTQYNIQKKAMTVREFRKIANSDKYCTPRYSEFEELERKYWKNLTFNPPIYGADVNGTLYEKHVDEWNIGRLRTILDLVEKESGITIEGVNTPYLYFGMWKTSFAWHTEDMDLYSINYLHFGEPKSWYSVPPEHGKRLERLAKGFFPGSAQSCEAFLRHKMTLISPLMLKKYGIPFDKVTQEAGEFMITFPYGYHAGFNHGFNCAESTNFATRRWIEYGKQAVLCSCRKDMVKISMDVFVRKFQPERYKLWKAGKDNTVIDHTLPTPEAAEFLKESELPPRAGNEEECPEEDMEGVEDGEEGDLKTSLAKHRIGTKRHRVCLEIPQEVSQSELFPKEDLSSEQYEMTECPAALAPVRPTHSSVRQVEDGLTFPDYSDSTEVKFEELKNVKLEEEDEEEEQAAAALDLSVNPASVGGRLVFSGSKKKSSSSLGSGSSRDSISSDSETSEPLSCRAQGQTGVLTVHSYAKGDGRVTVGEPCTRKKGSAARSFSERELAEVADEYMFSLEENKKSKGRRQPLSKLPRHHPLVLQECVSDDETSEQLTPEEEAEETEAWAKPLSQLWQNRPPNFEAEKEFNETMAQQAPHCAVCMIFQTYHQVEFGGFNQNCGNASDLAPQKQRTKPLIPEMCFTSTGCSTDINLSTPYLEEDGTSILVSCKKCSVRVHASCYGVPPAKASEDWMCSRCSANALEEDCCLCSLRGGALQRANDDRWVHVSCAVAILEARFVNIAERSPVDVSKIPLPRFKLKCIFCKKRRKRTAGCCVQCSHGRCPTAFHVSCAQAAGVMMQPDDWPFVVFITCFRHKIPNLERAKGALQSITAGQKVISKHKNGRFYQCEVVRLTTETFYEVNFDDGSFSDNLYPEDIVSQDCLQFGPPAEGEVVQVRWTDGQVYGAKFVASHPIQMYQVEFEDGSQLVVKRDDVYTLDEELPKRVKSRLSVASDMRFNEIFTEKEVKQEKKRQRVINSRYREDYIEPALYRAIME

On to `CCOC(=O)C1=C(C)NC(=O)NC1c1c(C)nn(-c2ccccc2)c1Cl` (stereo unspecified), for which, in series [1], the IC50 was 5.4 µM (active). The AC50 is 8.63 µM (active) in series [2] and 1.22 µM (active) in [3].
On to `O=C(CSc1nnnn1C1CC2CCC1C2)Nc1ccnc2ccccc12` (stereo unspecified), for which the IC50 was > 42 µM (not active) on Galanin receptor type 2; 61.4 µM (inactive) in the series with Jurkat; 45.1 µM (inactive) in series [4]; 0.0869 µM (active) on Galanin receptor type 3; 0.568 µM (active) in series [5]. Moreover, the EC50 in the series “cells” is > 29.9 µM (inactive).
For the compound `CCc1ccc2nc(N(CCN(C)C)C(=O)c3ccc4ncsc4c3)sc2c1`, the EC50 in [6] is 0.176 µM (active); in series [7] it was > 195 µM (inconclusive); in series [8], 0.176 µM (active).
Turning to `Cc1ccc2c(C)c(C(=O)N(Cc3ccc(F)cc3)C3CCS(=O)(=O)C3)oc2c1` (stereo unspecified), the AC50 on CAAX prenyl protease 2 was > 100 µM (inactive); on CAAX prenyl protease 1 it was 26.5 µM (active).
Consider `COc1ccc2[nH]c3c(c2c1)CCNC3c1ccc([N+](=O)[O-])o1` (stereo unspecified), for which the EC50 in series [9] was 5.82 µM (inconclusive); in [10], 4.34 µM (inconclusive); in series [11], 34.1 µM (active). Further, the IC50 (at Exodeoxyribonuclease V; in series [12]) was > 119 µM (inactive) each time.
With `O=[N+]([O-])c1ccc(N2CCOCC2)nc1`, the AC50 at Cytochrome P450 2C9 was 7.94 µM (inconclusive); at Cytochrome P450 2D6, “inconclusive”.
For `COc1ccc(NC(C)=O)cc1S(=O)(=O)Nc1ccc(OCc2ccccc2)cc1`, the values for the EC50 (in the series on HEK293 [13]; in series [16]) were 13.7 µM (active) and 12.3 µM (active), respectively. For the same compound, the IC50 in the series on HEK293 [14] is > 20 µM (inactive); in the series on HEK293 [15], > 20 µM (inactive); in the series with HEK293 [17] it was > 20 µM (inactive); with HEK293 [18], > 20 µM (inactive); on Tumor necrosis factor it was 18 µM (active); in series [19] it was 12.7 µM (active). Further, the values for the IC50 (in series [20]; with HEK293 [21]) were 16.6 µM (active) and > 20 µM (inactive), respectively.
